From patent publication US9402821B2, “Methods and pharmaceutical compositions for treatment of cystic fibrosis” (INSERM (Institut National de la sante et de la Recherche …, priority 2012, dated 2016)

Assays:
CFTR [1] = target: T1, CFTR (Homo sapiens, UniProt P13569); experiment: Short circuit current, cAMP-dependent Cl secretion (forskolin + IBMX) in HNEC; type: cell-based; set-up: Nasal polyps were obtained from non-CF requiring surgery for their nasal polyposis; endogenous in cells; host or cells: primary human nasal epithelial cells (HNEC) from nasal polyps of non-CF patients; conditions: primary HNEC, air-liquid interface, 500 μM basolateral, 2 h, mean SEM of five filters
Method: (§1) B. Chloride activity in HeLa Wt cells was measured by MQAE assay, after 3 h of treatment by NSAID (500 μM) or diluent. CFTR activity was expressed in rate of UFA/sec, calculated by difference between ((Ft−F0)/t) with CFTR induction and ((Ft−F0)/t) without CFTR induction. […] C. Primary culture of human nasal epithelial cell (HNEC) grown on Snapwell filters (air-liquid interface) were exposed basolaterally to sulindac (500 μM) or vehicle for 2 h and immediately mounted into a voltage-clamp system to bioelectric measurements. Short circuit current was measured with addition of amiloride to evaluated amiloride sensitive transport or with forskolin and IBMX for induced cAMP-dependent Cl secretion.
Two cell models were used to the interface air-liquid model for ionic efflux assays by short circuit current and to dose the basolateral IL-8 secretion. Calu-3 are derived from lung adenocarcinoma and are able to polarized and express a high rate of endogenous CFTR. […] Transepithelial resistance and transepithelial potential difference were measured every 3 days using a microvoltmeter (World Precision Instruments, Astonbury, UK).
Cells were grown at 37° C. in a 5% CO2 incubator in DMEM with Glutamax (Invitrogen) and 10% fetal bovine serum (SVF). […] The effects of treatment in HNEC cultures on snapwell inserts were evaluated between days 10 and 16. […]

CFTR [2] = target: T1, CFTR; experiment: CFTR maturation by Western blot of membrane extracts; type: cell-based; set-up: expressed in transfected cells; conditions: for Ratio CFTR C/C + B (%): HeLa CFTR WT, Ctr. 65.1
Method: as §1
To study the CFTR protein present at the cell membrane, a protocol of purification by differential centrifugations was used. CFTR wt and delta F508 HeLa cells (2×10^5 cells/cm^2) were lysed with hypotonic lysis buffer (10 mM de KCl, 1 mM de MgCl2, 10 mM Hepes pH 7, 4 and protease inhibitor). Mechanic lysis of cells was realized with minimum 10 strokes of a 26G syringe. Samples were centrifuged 10 min at 3000 g to eliminate cellular fragments and nuclear fraction in the pellet. Then supernatant was centrifuged 45 min at 50 000 g. The pellets with cellular membrane were resolubilized in RIPA buffer.
Aliquots of membrane cell extracts (30 μg protein) were separated by 7% SDS-PAGE and transferred on PVDF membrane. The western blots were probed with mouse monoclonal antibodies specific for CFTR (MM13-4, Millipore) 2 h at room temperature.

T1 sequence (P13569 whole entry): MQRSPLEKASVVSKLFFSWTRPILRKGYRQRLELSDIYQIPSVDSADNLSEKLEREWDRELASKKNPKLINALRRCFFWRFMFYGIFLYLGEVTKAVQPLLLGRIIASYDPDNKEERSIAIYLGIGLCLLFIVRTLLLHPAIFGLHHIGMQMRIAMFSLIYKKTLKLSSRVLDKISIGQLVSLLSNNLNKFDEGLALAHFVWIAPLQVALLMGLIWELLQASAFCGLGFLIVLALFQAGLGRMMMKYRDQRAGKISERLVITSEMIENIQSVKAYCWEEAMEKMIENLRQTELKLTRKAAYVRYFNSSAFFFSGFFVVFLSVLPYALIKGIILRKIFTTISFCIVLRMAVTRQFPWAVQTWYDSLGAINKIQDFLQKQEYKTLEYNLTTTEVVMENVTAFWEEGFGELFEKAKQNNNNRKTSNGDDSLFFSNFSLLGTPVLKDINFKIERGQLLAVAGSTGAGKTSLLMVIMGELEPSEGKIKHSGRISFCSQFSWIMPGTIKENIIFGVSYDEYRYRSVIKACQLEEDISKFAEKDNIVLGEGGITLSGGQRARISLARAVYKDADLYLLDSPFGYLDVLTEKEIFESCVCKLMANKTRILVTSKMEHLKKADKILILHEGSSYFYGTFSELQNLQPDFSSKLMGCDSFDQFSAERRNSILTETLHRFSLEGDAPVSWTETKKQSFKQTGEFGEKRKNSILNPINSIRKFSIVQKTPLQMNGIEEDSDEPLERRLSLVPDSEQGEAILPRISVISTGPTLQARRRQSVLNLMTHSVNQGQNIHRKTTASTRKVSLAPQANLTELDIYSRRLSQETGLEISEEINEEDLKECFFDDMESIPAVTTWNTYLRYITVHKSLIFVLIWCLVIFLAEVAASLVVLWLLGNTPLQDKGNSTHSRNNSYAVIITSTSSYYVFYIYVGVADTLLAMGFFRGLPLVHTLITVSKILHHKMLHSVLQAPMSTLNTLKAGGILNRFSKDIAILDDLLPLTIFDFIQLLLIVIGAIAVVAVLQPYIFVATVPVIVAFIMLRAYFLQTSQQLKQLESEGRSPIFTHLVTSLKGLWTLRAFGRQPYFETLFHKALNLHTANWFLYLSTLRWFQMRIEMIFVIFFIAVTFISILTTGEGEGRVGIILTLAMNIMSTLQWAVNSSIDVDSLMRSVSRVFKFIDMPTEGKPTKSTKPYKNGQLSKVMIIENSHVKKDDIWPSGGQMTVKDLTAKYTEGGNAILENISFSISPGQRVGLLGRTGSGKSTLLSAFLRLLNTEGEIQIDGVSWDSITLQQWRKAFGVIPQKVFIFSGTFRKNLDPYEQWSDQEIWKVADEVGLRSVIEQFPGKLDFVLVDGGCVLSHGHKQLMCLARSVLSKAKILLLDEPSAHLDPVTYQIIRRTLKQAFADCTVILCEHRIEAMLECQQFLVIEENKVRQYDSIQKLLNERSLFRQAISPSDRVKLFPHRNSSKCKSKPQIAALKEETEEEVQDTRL

increase of CFTR activity (short circuit current, forskolin + IBMX) (CFTR [1]): increase of CFTR activity
increase of CFTR activity (short circuit current, forskolin + IBMX) (CFTR [1]; listed as Sulindac): 46.35%
Ratio CFTR C/C + B (%) (CFTR [2]; 250 μM): 77.7%
Ratio CFTR C/C + B (%) (CFTR [2]; 500 μM): 81.5%
Compound: CC1=C(CC(=O)O)c2cc(F)ccc2/C1=C\c1ccc([S+](C)[O-])cc1 (centres unmarked) [sulindac, (Z)-5-fluoro-2-methyl-1-[p-(methylsulfinyl)benzylidene]-indene-3-acetic acid]
mature form of CFTR (Western blot) (CFTR [2]; WT-CFTR HeLa cells, 500 μM): significant increase of mature form of CFTR
